Measured values from ChEMBL document CHEMBL1131633, “Design, synthesis, and biological activities of new thieno[3,2-d] pyrimidines as selective type 4 phosphodiesterase inhibitors” (J Med Chem, 1998).

What was measured:
[1] = molecular target: Phosphodiesterase 3 (Cavia porcellus); assay: Inhibitory activity against cGMP inhibited Phosphodiesterase 3, isolated from guinea pig ventricular tissue
[2] = molecular target: Phosphodiesterase 4 (Cavia porcellus); assay: Increased cAMP accumulation in isoprenaline-induced guinea pig eosinophils
[3] = molecular target: Phosphodiesterase 4 (Cavia porcellus); assay: Inhibitory activity against phosphodiesterase 4 isolated from guinea pig ventricular tissue
[4] = molecular target: Phosphodiesterase 4 (Rattus norvegicus) (UniProt P14270+P14646+P14644+P54748); assay: Displacement of [3H]rolipram from Phosphodiesterase 4 in rat brain membranes at 10 uM; assay type: cell membranes

Row | SMILES | IC50 [1] [µM] | EC50 [2] [µM] | IC50 [3] [µM] | inhibition [4] [%]
1 | c1ccc(CNc2nc(N3CCCCC3)nc3ccsc23)cc1 | > 200 | 21 | 65 | –
2 | CCCCc1nc(NCc2ccncc2)c2sccc2n1 | 29 | – | 0.6 | –
3 | CCCCc1nc2ccsc2c(=O)n1Cc1ccccc1 | 43 | – | 5 | –
4 | CCCCc1nc(NCc2ccc(-c3ccccc3)cc2)c2sccc2n1 | 200 | – | > 200 | –
5 | CCCCc1nc(N(Cc2ccccc2)Cc2ccccc2)c2sccc2n1 | > 200 | – | 4 | 37
6 | CCCCc1nc2ccccc2c(=O)n1Cc1ccccc1 | > 200 | – | 16 | –
7 | CCCCc1nc(NCc2ccc([N+](=O)[O-])cc2)c2sccc2n1 | 8.5 | – | 6.3 | –
8 | CCCCc1nc(NCc2ccccc2)c2nccnc2n1 | 45 | – | 6.7 | –
9 | c1ccc(CNc2ncnc3ccsc23)cc1 | 68 | 18 | 14 | –
10 | c1ccc(CNc2nc(-c3ccccc3)nc3ccsc23)cc1 | > 200 | – | 3 | 8
11 | CCCCc1nc2ncccc2c(=O)n1Cc1ccccc1 | > 200 | – | 10 | –
12 | CCCc1nc2ccccc2n(Cc2ccccc2)c1=O | > 200 | – | 0.9 | –
13 | CCCCc1nc(N(CCC)Cc2ccccc2)c2sccc2n1 | > 200 | – | 2.5 | 37
14 | CCCc1nc2cccnc2n(Cc2ccccc2)c1=O | > 200 | – | 1 | –
15 | c1ccc(CNc2[nH]c(Cc3ccccc3)nc3ncnc2-3)cc1 | > 200 | – | 29 | –
16 | CCCCc1nc(NC(=O)c2ccccc2)c2sccc2n1 | > 200 | – | 23 | –
17 | c1ccc(CNc2nc(Cc3ccccc3)nc3ccsc23)cc1 | 5 | – | 1.5 | –
18 | CCc1nc(NCc2ccccc2)c2sccc2n1 | 30 | – | 2.3 | 41
